As usually defined, the IC50 is the concentration needed to halve the response being measured.

Here are results for five molecules from PMC11642981, “Bioguided Identification of Polymethoxyflavones as Novel Vascular CaV1.2 Channel Blockers from Citrus Peel” (Molecules, 2024).

Holding throughout (format): cell-based
Test [1] deals with T1, CaV1.2 channel (α1C subunit) (Rattus norvegicus, UniProt P22002).
T1 construct: gene Cacna1c; native channel in freshly isolated rat tail artery myocytes
As to the kind of experiment: whole-cell patch-clamp, complete block of IBa1.[…] at […].

Test [2] concerns the target T1, CaV1.2 channel (α1C subunit). As to the kind of experiment: whole-cell patch-clamp, Ba2+ current (IBa1.[…]). Particulars: read-out: % reduction in current amplitude at 100 μM.
Test [3] shares this target. As to the kind of experiment: whole-cell patch-clamp, Ba2+ current (IBa1.[…]).

Where two headings read alike, the source gives them in different places.

T1 sequence (P22002 whole entry): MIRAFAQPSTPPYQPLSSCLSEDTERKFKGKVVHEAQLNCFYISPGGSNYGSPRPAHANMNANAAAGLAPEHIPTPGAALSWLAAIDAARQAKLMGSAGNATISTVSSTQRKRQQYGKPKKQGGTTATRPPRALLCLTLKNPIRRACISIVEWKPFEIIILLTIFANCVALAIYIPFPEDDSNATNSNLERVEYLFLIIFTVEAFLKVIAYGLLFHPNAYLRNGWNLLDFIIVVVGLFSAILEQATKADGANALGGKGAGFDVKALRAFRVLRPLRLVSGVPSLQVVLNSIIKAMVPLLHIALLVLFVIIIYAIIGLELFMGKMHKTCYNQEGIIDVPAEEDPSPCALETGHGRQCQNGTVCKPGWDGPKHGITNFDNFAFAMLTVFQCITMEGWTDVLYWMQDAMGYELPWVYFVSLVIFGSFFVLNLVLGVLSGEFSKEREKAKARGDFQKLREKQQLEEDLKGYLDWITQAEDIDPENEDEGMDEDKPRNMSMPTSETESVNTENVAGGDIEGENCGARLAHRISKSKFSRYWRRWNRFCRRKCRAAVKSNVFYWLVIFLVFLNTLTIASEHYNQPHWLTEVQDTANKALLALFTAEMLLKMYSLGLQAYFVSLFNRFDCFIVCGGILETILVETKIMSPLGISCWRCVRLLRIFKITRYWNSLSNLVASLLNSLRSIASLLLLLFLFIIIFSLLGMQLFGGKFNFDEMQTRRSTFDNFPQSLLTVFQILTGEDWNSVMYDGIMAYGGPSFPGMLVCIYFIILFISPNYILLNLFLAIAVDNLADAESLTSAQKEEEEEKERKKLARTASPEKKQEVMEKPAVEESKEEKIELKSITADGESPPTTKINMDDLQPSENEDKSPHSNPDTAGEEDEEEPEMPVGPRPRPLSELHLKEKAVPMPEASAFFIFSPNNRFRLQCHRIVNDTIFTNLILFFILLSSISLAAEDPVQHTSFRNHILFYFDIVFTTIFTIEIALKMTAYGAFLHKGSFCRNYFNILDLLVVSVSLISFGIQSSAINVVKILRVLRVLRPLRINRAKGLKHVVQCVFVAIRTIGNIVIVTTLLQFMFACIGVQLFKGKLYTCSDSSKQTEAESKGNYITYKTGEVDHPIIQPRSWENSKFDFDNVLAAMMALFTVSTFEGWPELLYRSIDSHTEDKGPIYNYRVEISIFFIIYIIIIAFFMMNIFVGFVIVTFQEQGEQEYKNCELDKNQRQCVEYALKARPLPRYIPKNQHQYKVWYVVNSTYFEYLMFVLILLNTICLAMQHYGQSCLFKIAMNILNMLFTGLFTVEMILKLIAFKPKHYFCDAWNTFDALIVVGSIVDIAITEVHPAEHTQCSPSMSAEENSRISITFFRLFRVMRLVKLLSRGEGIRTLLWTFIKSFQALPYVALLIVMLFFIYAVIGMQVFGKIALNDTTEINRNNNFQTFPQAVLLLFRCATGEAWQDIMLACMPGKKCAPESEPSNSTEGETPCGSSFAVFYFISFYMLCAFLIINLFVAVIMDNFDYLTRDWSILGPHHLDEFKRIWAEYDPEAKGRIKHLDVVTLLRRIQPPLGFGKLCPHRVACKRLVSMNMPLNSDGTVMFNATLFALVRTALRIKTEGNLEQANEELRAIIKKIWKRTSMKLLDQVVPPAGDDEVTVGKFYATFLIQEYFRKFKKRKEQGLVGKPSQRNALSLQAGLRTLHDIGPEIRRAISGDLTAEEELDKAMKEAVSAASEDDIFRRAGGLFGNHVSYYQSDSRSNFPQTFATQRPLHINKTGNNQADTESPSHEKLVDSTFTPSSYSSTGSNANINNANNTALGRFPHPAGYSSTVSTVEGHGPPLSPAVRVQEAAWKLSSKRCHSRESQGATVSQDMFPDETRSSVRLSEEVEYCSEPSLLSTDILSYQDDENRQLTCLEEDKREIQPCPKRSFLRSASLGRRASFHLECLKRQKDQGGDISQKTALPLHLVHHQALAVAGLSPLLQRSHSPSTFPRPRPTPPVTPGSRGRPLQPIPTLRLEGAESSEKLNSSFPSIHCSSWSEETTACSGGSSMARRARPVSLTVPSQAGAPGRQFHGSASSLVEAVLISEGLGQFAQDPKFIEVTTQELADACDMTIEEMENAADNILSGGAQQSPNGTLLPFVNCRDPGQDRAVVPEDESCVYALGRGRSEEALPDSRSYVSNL

As to `COC(=O)C1=C(C)NC(C)=C(C(=O)OC)C1c1ccccc1[N+](=O)[O-]` [nifedipine], the “whole-cell patch-clamp, complete block of IBa1.2 at 10 μM” value in test [1] is recorded as 10 µM (completely blocked IBa1.2).
For `COc1ccc(-c2cc(=O)c3c(OC)c(OC)c(OC)cc3o2)cc1OC` [sinensetin], the inhibition at 100 µM in test [2] was determined as 50%.
For `COc1ccc(-c2cc(=O)c3c(OC)c(OC)c(OC)c(OC)c3o2)cc1` [tangeretin], the IC50 in test [3] (read-out: IC50 (converted)) is ~66.1 µM.
On to `COc1ccc(-c2cc(=O)c3c(OC)c(OC)c(OC)c(OC)c3o2)cc1OC` [nobiletin], for which the inhibition at 100 µM in test [2] was 50%.
Turning to `COc1ccc(-c2cc(=O)c3c(OC)c(OC)c(OC)cc3o2)cc1` [scutellarein tetramethyl ether], in test [3], the IC50 was ~33.1 µM.
